{"source": "patent US10722496B2", "about": "“2-iminobiotin for use in the treatment of brain cell injury” (Neurophyxia B.V., priority 2015, dated 2020)", "key": {"IMR-32 cells [1]": {"test_system": "IMR-32 cells", "assay": "Metabolic activity assay (MTS)", "format": "cell-based, human", "method": "(§1) In vitro hypoxia was induced in the cell cultures by using our recently described system with minor modifications (Huang et al., 2013b; Weber et al., 2015; Zitta et al., 2010). Enzyme stock solutions (100×) of catalase and glucose oxidase (both from Sigma-Aldrich) were prepared in cell culture medium (DMEM/F12, 1% FCS; final concentration: 120 U/ml and 2 U/ml respectively; Sigma-Aldrich) leading to a decrease of partial pressure of oxygen (pO2) below 10 mmHg within 5 minutes. Hypoxic conditions were confirmed by using a tissue oxygen pressure monitor (LICOX® CMP Oxygen Catheter; Integra, Plainsboro, USA). After 7 hours of hypoxia, the cells were washed twice with PBS (PAA) and fresh normoxic medium supplemented with solvent (citrate buffer 1%) or 2-IB (10, 30, 50, 100 and 300 ng/mL) was added to the cells. Investigations of cell damage, metabolic activity, ROS, hydrogen peroxide, nitrite/nitrate production, erkl/2, akt and stat5 phosphorylation as well as cell stress protein expression were performed with cell culture media or cell protein (FIG. 1).\nMetabolically active cells were evaluated by using a colorimetric kit (CELLTITER96® AQueous One Solution Reagent G3580 Promega Madison, Wis., USA). Samples were prepared concerning to the manufacturer's protocol. Briefly, 4×10^4 cells were seeded per well in a 96-well plate with 100 μl DMEM/F12 supplemented with 10% FCS per well. After 2 days in culture, normoxia or hypoxia was applied for 7 hours followed by the addition of 2-IB or the respective solvent control (citrate 1%) for 17 hours. After that, 20 μl of […] reagent were added to each well for 2.5 hours at 37° C. Metabolic active cells generate a colored product, the absorbance of which was measured at 490 nm using an ELISA reader (Tecan, Crailsheim, Austria) in combination with the Magellan software v1.1."}, "[2]": {"assay": "Toxicokinetics, repeated i.v. pulse infusions to adult rats", "format": "in vivo, rat", "details": "for mean AUC 0-4-hour: 6.6 mg/kg per 15-minute i.v. pulse, first and last pulse", "method": "The toxicokinetics of 2-IB was studied over a 96-hour period by i.v. pulse infusions to adult rats. The purpose of this study was to generate toxicokinetic parameters (Cmax, tmax, AUC, t1/2) from 2-IB plasma concentrations in male and female rats after repeated i.v. infusion.\nGroup 1 received vehicle only. Systemic exposure was monitored on day 0 and day 4. Blood sampling was conducted at 15 minutes and 0.5, 1 and 4 hours after the first infusion, and 15 minutes and 0.5, 1, 4, 8 and 24 hours following the last dose."}, "IMR-32 cells [3]": {"test_system": "IMR-32 cells", "assay": "Hydrogen peroxide in culture medium", "format": "cell-based, human", "details": "30 ng/ml 2-IB, data not shown"}, "IMR-32 cells [4]": {"test_system": "IMR-32 cells", "assay": "LDH cytotoxicity assay, hypoxia-induced cell damage", "format": "cell-based, human", "details": "10 ng/ml 2-IB, 17 hours after hypoxia"}, "IMR-32 cell cultures": {"test_system": "IMR-32 cell cultures", "assay": "Hydrogen peroxide after hypoxia under mild hypothermia", "format": "cell-based, human", "details": "post-hypoxic application", "method": "In-vitro hypoxia was induced for 7 hours using IMR-32 cell cultures. After the hypoxic insult, cultures were subjected to 25 hours of mild hypothermia (33.5° C.) and were incubated with or without 2-IB (10, 30, 50, 100 and 300 ng/ml). Cell morphology was evaluated by brightfield microscopy and cell damage was analyzed by LDH assays. Production of reactive oxygen species (ROS) was measured using fluorometric assays. Western blotting for PARP and phosphorylated as well as unphosphorylated akt and erkl/2 was performed."}, "erkl/2": {"test_system": "erkl/2", "assay": "Western blotting, erkl/2 phosphorylation", "format": "cell-based, human", "details": "30 ng/ml 2-IB", "method": "as §1, with “Investigations of cell damage, metabolic activity, ROS, hydrogen peroxide, nitrite/nitrate production, erkl/2, akt and stat5 phosphorylation as well as cell stress protein expression were performed with cell culture media or cell protein (FIG. 1).” left out\nProtein extraction was performed using RIPA buffer containing 150 mM sodium chloride, 1% NP-40, 1% sodium deoxycholate, 0.1% sodium dodecyl sulfate (SDS) and 50 mM Tris-HCl buffer (pH 7.6; all from Sigma-Aldrich) or alternatively M-PER buffer (Mammalian Protein Extraction Reagent; Pierce, Ill., USA). Protein concentrations were determined with Roti®-Quant assays (Carl Roth) and samples were stored at −20° C. until use. […] Images were taken and densitometrically analyzed with the software ImageJ (v1.41o, NIH)."}}, "data": [{"smiles": "N=C1N[C@H]2[C@H](CS[C@H]2CCCCC(=O)O)N1", "note": "[2-IB, 2-iminobiotin]", "values": [{"measurement": "metabolic activity", "setting": "IMR-32 cells [1]; 10 ng/ml 2-IB, hypoxia", "result": "0.44±0.10", "unit": "a.u."}, {"measurement": "metabolic activity", "setting": "IMR-32 cells [1]; 10 ng/ml 2-IB, normoxia, 17 hours after hypoxia", "result": "0.44±0.08", "unit": "a.u."}, {"measurement": "metabolic activity", "setting": "IMR-32 cells [1]; 30 ng/ml 2-IB, hypoxia", "result": "0.45±0.09", "unit": "a.u."}, {"measurement": "metabolic activity", "setting": "IMR-32 cells [1]; 30 ng/ml 2-IB, normoxia", "result": "0.49±0.08", "unit": "a.u."}, {"measurement": "metabolic activity", "setting": "IMR-32 cells [1]; 50 ng/ml 2-IB, hypoxia", "result": "0.41±0.06", "unit": "a.u."}, {"measurement": "metabolic activity", "setting": "IMR-32 cells [1]; 50 ng/ml 2-IB, normoxia", "result": "0.50±0.08", "unit": "a.u."}, {"measurement": "metabolic activity", "setting": "IMR-32 cells [1]; 100 ng/ml 2-IB, hypoxia", "result": "0.33±0.06", "unit": "a.u."}, {"measurement": "metabolic activity", "setting": "IMR-32 cells [1]; 100 ng/ml 2-IB, normoxia", "result": "0.58±0.09", "unit": "a.u."}, {"measurement": "metabolic activity", "setting": "IMR-32 cells [1]; 300 ng/ml 2-IB, hypoxia", "result": "0.33±0.07", "unit": "a.u."}, {"measurement": "metabolic activity", "setting": "IMR-32 cells [1]; 300 ng/ml 2-IB, normoxia", "result": "0.63±0.09", "unit": "a.u."}, {"measurement": "hypoxia-induced reduction of metabolic activity, most efficient concentrations", "setting": "IMR-32 cells [1]; 10-300 ng/ml tested, P<0.01 vs. control", "result": "most efficiently counteracted by 10, 30 and 50 ng/ml 2-IB"}, {"measurement": "mean AUC 0-4-hour", "setting": "[2]; 1st of four values printed for male and female rats", "result": 2310, "unit": "ng·h/mL"}, {"measurement": "mean AUC 0-4-hour", "setting": "[2]; 2nd of four values printed for male and female rats", "result": 2530, "unit": "ng·h/mL"}, {"measurement": "mean AUC 0-4-hour", "setting": "[2]; 3rd of four values printed for male and female rats", "result": 1750, "unit": "ng·h/mL"}, {"measurement": "mean AUC 0-4-hour", "setting": "[2]; 4th of four values printed for male and female rats", "result": 1950, "unit": "ng·h/mL"}, {"measurement": "overall mean AUC 0-4-hour", "setting": "[2]; 6.6 mg/kg per pulse, across sexes and first and last pulses", "result": "about 2135 ng·h/mL"}, {"measurement": "AUC expected", "setting": "[2]; rat, 3.3 mg/kg dose level, assuming linear PK", "result": "about 1068 ng·h/mL"}, {"measurement": "hypoxia-induced release of hydrogen peroxide", "setting": "IMR-32 cells [3]", "result": "did not attenuate the hypoxia-induced release of hydrogen peroxide"}, {"measurement": "LDH/total LDH", "setting": "IMR-32 cells [4]; hypoxia", "result": "0.15±0.03"}, {"measurement": "LDH/total LDH", "setting": "IMR-32 cells [4]; normoxia", "result": "0.09±0.02"}, {"measurement": "generation of hydrogen peroxide", "setting": "IMR-32 cell cultures", "result": "did not influence generation of hydrogen peroxide"}, {"measurement": "phosphorylation of erkl/2", "setting": "erkl/2", "result": "did not influence"}]}]}
